Data taken from patent US20240287172A1, “PROTEIN BINDERS TO IRHOM2 EPITOPES” (SCIRHOM GMBH, priority 2019, published 2024).

Test system: PMA-induced release of endogenous IL-6R from human U-937 cells
Assay: ELISA-based IL-6R release assay, PMA-induced, U-937 cells
Type: cell-based
Conditions: U-937, 1 h, PMA 62.5 ng/ml, Batimastat at 10 μM
Protocol: In brief, on day 1, Nunc black MaxiSorp® 96-well plates (Thermo Fisher Scientific, USA) were coated overnight with 100 μl per well of mouse anti-human IL-6R capture antibody (provided as part of the DuoSet ELISA kit) at 2 μg/ml TBS at 4° C. On day 2, the capture antibody solution was removed and MaxiSorp® plates were blocked with 300 μl per well of TBS, 1% BSA at room temperature for 1-2 hours. Meanwhile, 80,000 U-937 (European Collection of Authenticated Cell Cultures, UK) cells in 80 μl of normal growth medium were seeded in each well of Greiner CELLSTAR V-bottom 96-well plates (Thermo Fisher Scientific, USA) and pre-incubated with 20 μl per well of standard growth medium supplemented with Batimastat (BB94, Abcam, UK) at 50 μM as positive control (for a final concentration of 10 μM in the resulting 100 μl sample volume), mouse IgG antibody (Thermo Fisher Scientific, USA) at 5 μg/ml as isotype control (for a final […]) at 37° C., 5% CO2 for 30 minutes. In case of stimulation controls, 20 μl of standard growth medium without test articles were added. […] Using an infinite M1000 (Tecan Group, Switzerland) microplate reader, the fluorescence of each well was collected at an excitation wavelength of 435 nm and an emission wavelength of 555 nm. […]

Q: Which inhibition at 10 µM (murine (m) and chimeric (ch) antibodies and IgG at 3 μg/ml) does the source give for `CNC(=O)[C@H](Cc1ccccc1)NC(=O)[C@H](CC(C)C)[C@H](CSc1cccs1)C(=O)NO` [Batimastat] here?
A: The inhibition at 10 µM was 91.6%.

Q: And the inhibition at 10 µM (recombinant murine antibodies and IgG at 1 μg/ml)?
A: The inhibition at 10 µM was 86.6%.
